The source of these data is patent publication US7786127B2, “Benzimidazole thiophene compounds” (Glaxo SmithKline LLC, priority 2005, dated 2010).

What is called IC50 is the point on the concentration scale where inhibition reaches its midpoint. Read a high IC50 as weaker potency in that assay.

Type in all cases: cell-based
For assay [1], the system named is HCT116. Nature of the assay: Methylene blue growth inhibition assay, HCT116. The settings on record: Homo sapiens, HCT-116, 72 h. How it is done: (§1) Generally, exponentially growing cell lines of different tumor origins, cultured in appropriate media containing 10% fetal bovine serum at 37° C. in a 5% CO2 incubator were plated at low density (less than 2000 cells/well) in 96-well plates. Twenty four hours post-plating, cells were treated with different concentrations of test compounds ranging from 10 uM to 0.04 nM. Several wells were left untreated as a control. Seventy two hours post-treatment, cell numbers were determined using 10 μl per well of methylene blue (Sigma M9140) (0.5% in 50:50 Ethanol:water). […] Plates were read on a microplate reader, measuring the OD at 620 nm. […]
(§2) In one assay, normal human foreskin fibroblasts (HFF), human colon (HCT116, RKO), lung (H460, A549) and breast (MCF7) tumor cell lines were cultured in high glucose DMEM (Life Technologies) containing 10% fetal bovine serum (FBS) at 37° C. in a humidified 5% CO2, 95% air incubator. Cells were harvested using trypsin/EDTA, counted using a haemocytometer, and plated in 100 μL of culture media per well, at the following densities, in a 96-well tissue culture plate (Falcon 3075): HFF 5,000 cells/well, HCT116 3,000 cells/well, RKO 2,500 cells/well, H460 2,500 cells/well, A549 5,000 cells/well, MCF7 4,000 cells/well. […] Optical density at 620 nm was measured on a microplate reader. […]

For assay [2], the system named is H460. Nature of the assay: Methylene blue growth inhibition assay, H460. Conditions: Homo sapiens, NCI-H460, 72 h. On the procedure: as §1, §2
In assay [3] the test system is MCF7. Nature of the assay: Methylene blue growth inhibition assay, MCF7. The settings on record: Homo sapiens, 72 h. On the procedure: as §1, §2
Assay [4] deals with A549. Nature of the assay: Methylene blue growth inhibition assay, A549. The settings on record: Homo sapiens, 72 h. How it is done: as §1, §2
Assay [5] concerns RKO. Briefly: Methylene blue growth inhibition assay, RKO. The settings on record: Homo sapiens, 72 h. How it is done:
as §1, §2

The subject of assay [6] is normal human foreskin fibroblasts (HFF). Briefly: Methylene blue growth inhibition assay, HFF. Conditions: Fibroblast, 72 h. How it is done:
as §1, §2

SMILES strings stand for the structures.

On to `C[C@@H](Oc1cc(-n2cnc3ccc(OC4CCN(C)CC4)cc32)sc1C(N)=O)c1ccccc1C(F)(F)F` [Example 7, 5-{6-[(1-Methyl-4-piperidinyl)oxy]-1H-benzimidazol-1-yl}-3-({(1R)-1-[2-(trifluoromethyl)phenyl]ethyl}oxy)-2-thiophenecarboxamide], for which the IC50 in assay [1] is under 100 nM; in assay [2], under 100 nM; in assay [3], under 100 nM; in assay [4], under 100 nM; in assay [5], under 100 nM; in assay [6], 100 to 1000 nM.
Take `C[C@@H](Oc1cc(-n2cnc3ccc(OC4CCN(C)CC4)cc32)sc1C(N)=O)c1ccccc1Cl` [Example 8, 3-{[(1R)-1-(2-Chlorophenyl)ethyl]oxy}-5-{6-[(1-methyl-4-piperidinyl)oxy]-1H-benzimidazol-1-yl}-2-thiophenecarboxamide]: the IC50 in assay [1], in assay [2], in assay [4], in assay [5] and in assay [6] was under 100 nM throughout.
